System: psoriasis
Assay: Topical dosage form of CAPE in petroleum jelly for treating psoriasis
Format: in vivo
Conditions: 10.0 weight percent in petroleum jelly
Source text: In some embodiments, the topical dosage forms may contain 0.5 weight percent to 20.0 weight percent of the compounds described herein. […] The weight percent of the compounds described herein within the topical dosage forms may range from 1.0 weight percent to 15.0 weight percent or 5.0 weight percent to 11.0 weight percent. Treatment regimes with the topical dosage forms may occur daily, twice daily, three times daily or four times daily for durations, for example, of three weeks or four weeks or until symptoms are no longer present.

## O=C(/C=C/c1ccc(O)c(O)c1)OCCc1ccccc1 [CAPE, caffeic acid phenethyl ester]
  effectiveness for treating psoriasis: effective

From patent US20080167277A1, “METHODS OF TREATING SKIN DISORDERS WITH CAFFEIC ACID ANALOGS” (priority 2006, published 2008)
